Laboratory results from patent publication US7910751B2, “Heterocyclidene acetamide derivative” (Mochida Pharmaceutical Co., Ltd., priority 2005, dated 2011).

Biological target: T1, human TRPV1 (Homo sapiens, UniProt Q8NER1)
T1 construct: expressed in transfected cells; host or cells: CHO-K1
Assay: Measurement of capsaicin-induced Ca influx in human TRPV1 transformed CHO cell line using FDSS-6000
Format: cell-based
Conditions: concentration at which the capsaicin concentration-reaction curve is shifted two times to the right, human TRPV1 transformed CHO cells

T1 sequence (Q8NER1 whole entry): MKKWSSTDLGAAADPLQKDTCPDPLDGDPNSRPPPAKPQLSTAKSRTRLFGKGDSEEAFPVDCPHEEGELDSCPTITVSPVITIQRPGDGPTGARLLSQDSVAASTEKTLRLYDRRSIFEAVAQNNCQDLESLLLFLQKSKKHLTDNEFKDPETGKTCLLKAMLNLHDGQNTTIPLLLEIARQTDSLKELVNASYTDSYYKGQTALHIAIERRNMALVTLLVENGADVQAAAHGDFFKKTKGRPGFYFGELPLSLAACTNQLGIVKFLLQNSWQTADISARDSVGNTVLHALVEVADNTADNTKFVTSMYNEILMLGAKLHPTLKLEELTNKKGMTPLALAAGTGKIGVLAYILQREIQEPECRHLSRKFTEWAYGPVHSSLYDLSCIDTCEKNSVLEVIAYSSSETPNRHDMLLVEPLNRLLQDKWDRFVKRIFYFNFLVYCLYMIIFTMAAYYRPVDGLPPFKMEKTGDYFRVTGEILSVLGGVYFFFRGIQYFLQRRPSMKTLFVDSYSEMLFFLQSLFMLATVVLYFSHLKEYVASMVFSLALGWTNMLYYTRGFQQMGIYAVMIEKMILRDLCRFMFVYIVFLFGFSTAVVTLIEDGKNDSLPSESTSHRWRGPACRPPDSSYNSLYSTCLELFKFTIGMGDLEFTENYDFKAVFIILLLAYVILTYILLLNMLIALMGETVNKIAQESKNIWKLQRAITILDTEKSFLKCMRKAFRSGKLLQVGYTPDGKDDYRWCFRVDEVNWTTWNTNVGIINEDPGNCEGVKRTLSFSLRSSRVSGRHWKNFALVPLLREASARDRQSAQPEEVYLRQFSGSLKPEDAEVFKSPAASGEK

SMILES | A2 VALUE
CC(C)CC(=O)N1CC/C(=C\C(=O)Nc2ccc3cccnc3c2)c2ccc(C(F)(F)F)cc21 [Example 77, (E)-2-(1-(3-methylbutanoyl)-7-trifluoromethyl-2,3-dihydroquinolin-4(1H)-ylidene)-N-(quinolin-7-yl)acetamide] | A (compounds of the present invention having an A2 value of less than 100 nM are represented by A)
O=C(/C=C1\CCNc2cc(C(F)(F)F)ccc21)Nc1cccc2c1CC(O)CC2 (stereo not drawn) [Example 106, (E)-2-(7-trifluoromethyl-2,3-dihydroquinolin-4(1H)-ylidene)-N-(7-hydroxy-5,6,7,8-tetrahydronaphthalen-1-yl)acetamide] | A (compounds of the present invention having an A2 value of less than 100 nM are represented by A)
CC1(C)C/C(=C\C(=O)Nc2cccc3c2CC(O)CN3)c2ccc(C(F)(F)F)cc2O1 (stereo not drawn) [Example 245, (E)-2-(7-trifluoromethyl-2,2-dimethylchroman-4-ylidene)-N-(3-hydroxy-1,2,3,4-tetrahydroquinolin-5-yl)acetamide] | A (compounds of the present invention having an A2 value of less than 100 nM are represented by A)
O=C(/C=C1\CCN(C(=O)C2CCC(F)(F)CC2)c2cc(C(F)(F)F)ccc21)Nc1cccc2c1CC(O)CC2 (stereo not drawn) [Example 85, (E)-2-(1-(4,4-difluorocyclohexanecarbonyl)-7-trifluoromethyl-2,3-dihydroquinolin-4(1H)-ylidene)-N-(7-hydroxy-5,6,7,8-tetrahydronaphthalen-1-yl)acetamide] | A (compounds of the present invention having an A2 value of less than 100 nM are represented by A)
O=CN1CC/C(=C\C(=O)Nc2cccc3c2CC(O)CC3)c2ccc(C(F)(F)F)cc21 (stereo not drawn) [Example 114, (E)-2-(1-formyl-7-trifluoromethyl-2,3-dihydroquinolin-4(1H)-ylidene)-N-(7-hydroxy-5,6,7,8-tetrahydronaphthalen-1-yl)acetamide] | A (compounds of the present invention having an A2 value of less than 100 nM are represented by A)
O=C(/C=C1\CCCOc2cc(C(F)(F)F)ccc21)Nc1ccc2nccnc2c1 [Example 12, (E)-2-(8-trifluoromethyl-3,4-dihydrobenzo[b]oxepin-5(2H)-ylidene)-N-(quinoxalin-6-yl)acetamide] | A (compounds of the present invention having an A2 value of less than 100 nM are represented by A)
O=C(/C=C1\CCCOc2cc(C(F)(F)F)ccc21)Nc1ccccc1CCO [Example 60, (E)-2-(8-trifluoromethyl-3,4-dihydrobenzo[b]oxepin-5(2H)-ylidene)-N-((2-hydroxyethyl)phenyl-1-yl)acetamide] | A (compounds of the present invention having an A2 value of less than 100 nM are represented by A)
O=C(/C=C1\CCCOc2cc(C(F)(F)F)ccc21)NCc1ccccc1N1CCOCC1 [Example 36, (E)-2-(8-trifluoromethyl-3,4-dihydrobenzo[b]oxepin-5(2H)-ylidene)-N-(2-morpholinophenyl)methyl-acetamide] | B (compounds having an A2 value of 100 nM or more are represented by B)
O=C(/C=C1\CCCOc2cc(C(F)(F)F)ccc21)Nc1ccc2c(c1)NCCC2 [Example 167, (E)-2-(8-trifluoromethyl-3,4-dihydrobenzo[b]oxepin-5(2H)-ylidene)-N-(1,2,3,4-tetrahydroquinolin-7-yl)acetamide] | A (compounds of the present invention having an A2 value of less than 100 nM are represented by A)
CC1(C)C/C(=C\C(=O)Nc2cccc3c2CC(O)CC3)c2ccc(C(F)(F)F)cc2O1 (stereo not drawn) [Example 243, (E)-2-(7-trifluoromethyl-2,2-dimethylchroman-4-ylidene)-N-(7-hydroxy-5,6,7,8-tetrahydronaphthalen-1-yl)acetamide] | A (compounds of the present invention having an A2 value of less than 100 nM are represented by A)
O=C(/C=C1\CCN(C(=O)C2CCCCC2)c2cc(C(F)(F)F)ccc21)Nc1ccc2cccnc2c1 [Example 52, (E)-2-(7-trifluoromethyl-2,3-dihydro-1-cyclohexanecarbonylquinolin-4(1H)-ylidene)-N-(quinolin-7-yl)acetamide] | A (compounds of the present invention having an A2 value of less than 100 nM are represented by A)
O=C(/C=C1\CCCOc2cc(C(F)(F)F)ccc21)NCC1COc2ccccc2O1 (stereo not drawn) [Example 34, (E)-2-(8-trifluoromethyl-3,4-dihydrobenzo[b]oxepin-5(2H)-ylidene)-N-((2,3-dihydrobenzo[b][1,4]dioxin-2-yl)methyl)acetamide] | B (compounds having an A2 value of 100 nM or more are represented by B)
O=C(/C=C1\CCCOc2cc(C(F)(F)F)ccc21)Nc1ccc2cc[nH]c2c1 [Example 137, (E)-2-(8-trifluoromethyl-3,4-dihydrobenzo[b]oxepin-5(2H)-ylidene)-N-(indol-6-yl)acetamide] | A (compounds of the present invention having an A2 value of less than 100 nM are represented by A)
CCCCC(=O)N1CC/C(=C\C(=O)Nc2cccc3c2CC(O)CC3)c2ccc(C(F)(F)F)cc21 (stereo not drawn) [Example 83, (E)-2-(1-pentanoyl-7-trifluoromethyl-2,3-dihydroquinolin-4(1H)-ylidene)-N-(7-hydroxy-5,6,7,8-tetrahydronaphthalen-1-yl)acetamide] | A (compounds of the present invention having an A2 value of less than 100 nM are represented by A)
O=C(/C=C1\CCCOc2cc(C(F)(F)F)ccc21)Nc1cccc2c1CC1OC1C2 (stereo not drawn) [Example 169, (E)-2-(8-trifluoromethyl-3,4-dihydrobenzo[b]oxepin-5(2H)-ylidene)-N-(1a,2,7,7a-tetrahydronaphtho[b]oxiren-3-yl)acetamide] | A (compounds of the present invention having an A2 value of less than 100 nM are represented by A)
O=C(/C=C1\CCCOc2cc(C(F)(F)F)ccc21)Nc1cccc(-c2cnc3ccccc3n2)c1 [Example 28, (E)-2-(8-trifluoromethyl-3,4-dihydrobenzo[b]oxepin-5(2H)-ylidene)-N-(3-(quinoxalin-2-yl)phenyl)acetamide] | B (compounds having an A2 value of 100 nM or more are represented by B)
CCCC(C)C(=O)N1CC/C(=C\C(=O)Nc2ccc3cccnc3c2)c2ccc(C(F)(F)F)cc21 (stereo not drawn) [Example 80, (E)-2-(1-(2-methylpentanoyl)-7-trifluoromethyl-2,3-dihydroquinolin-4(1H)-ylidene)-N-(quinolin-7-yl)acetamide] | A (compounds of the present invention having an A2 value of less than 100 nM are represented by A)
CCC(F)(F)C(=O)N1CC/C(=C\C(=O)Nc2cccc3c2CC(O)CN3)c2ccc(C(F)(F)F)cc21 (stereo not drawn) [Example 184, (E)-2-(1-(2,2-difluorobutanoyl)-7-trifluoromethyl-2,3-dihydroquinolin-4(1H)-ylidene)-N-(3-hydroxy-1,2,3,4-tetrahydroquinolin-5-yl)acetamide] | A (compounds of the present invention having an A2 value of less than 100 nM are represented by A)
O=C(/C=C1\CCCOc2cc(C(F)(F)F)ccc21)Nc1ccc2cccnc2c1 [Example 13, (E)-2-(8-trifluoromethyl-3,4-dihydrobenzo[b]oxepin-5(2H)-ylidene)-N-(quinolin-7-yl)acetamide] | A (compounds of the present invention having an A2 value of less than 100 nM are represented by A)
CC(C)(C)c1ccc(NC(=O)/C=C2\CCCOc3cc(C(F)(F)F)ccc32)cc1 [Example 14, (E)-N-(4-tert-butylphenyl)-2-(8-trifluoromethyl-3,4-dihydrobenzo[b]oxepin-5(2H)-ylidene)acetamide] | A (compounds of the present invention having an A2 value of less than 100 nM are represented by A)
Cn1nc(NC(=O)/C=C2\CCCOc3cc(C(F)(F)F)ccc32)c2cccnc21 [Example 41, (E)-2-(8-trifluoromethyl-3,4-dihydrobenzo[b]oxepin-5(2H)-ylidene)-N-(1-methyl-1H-pyrazolo[3,4-b]pyridin-3-yl)acetamide] | B (compounds having an A2 value of 100 nM or more are represented by B)
CCC(CC)C(=O)N1CC/C(=C\C(=O)Nc2ccc3cccnc3c2)c2ccc(C(F)(F)F)cc21 [Example 51, (E)-2-(1-(2-ethylbutanoyl)-7-trifluoromethyl-2,3-dihydroquinolin-4(1H)-ylidene)-N-(quinolin-7-yl)acetamide] | A (compounds of the present invention having an A2 value of less than 100 nM are represented by A)
O=C(/C=C1\CCN(C(=O)c2ccco2)c2cc(C(F)(F)F)ccc21)Nc1cccc2c1CC(O)CC2 (stereo not drawn) [Example 111, (E)-2-(7-trifluoromethyl-2,3-dihydro-1-(2-furancarbonyl)quinolin-4(1H)-ylidene)-N-(7-hydroxy-5,6,7,8-tetrahydronaphthalen-1-yl)acetamide] | A (compounds of the present invention having an A2 value of less than 100 nM are represented by A)
O=C(/C=C1\CCCOc2cc(C(F)(F)F)ccc21)Nc1ccc2c(c1)N(C(=O)CO)CCO2 [Example 231] | B (compounds having an A2 value of 100 nM or more are represented by B)
O=C(/C=C1\CCCOc2cc(C(F)(F)F)ccc21)Nc1cccc2c1CC(O)C(O)C2 (stereo not drawn) [Example 65, (E)-2-(8-trifluoromethyl-3,4-dihydrobenzo[b]oxepin-5-(2H)-ylidene)-N-(trans-6,7-dihydroxy-5,6,7,8-tetrahydronaphthalen-1-yl)acetamide] | A (compounds of the present invention having an A2 value of less than 100 nM are represented by A)
O=C(/C=C1\CCCOc2cc(C(F)(F)F)ccc21)Nc1cccc2c(O)cccc12 [Example 150, (E)-2-(8-trifluoromethyl-3,4-dihydrobenzo[b]oxepin-5(2H)-ylidene)-N-(5-hydroxynaphthalen-1-yl)acetamide] | A (compounds of the present invention having an A2 value of less than 100 nM are represented by A)
O=C(/C=C1\CCN(C(=O)C2CCC(C(F)(F)F)CC2)c2cc(C(F)(F)F)ccc21)Nc1cccc2c1CC(O)CC2 (stereo not drawn) [Example 110] | A (compounds of the present invention having an A2 value of less than 100 nM are represented by A)
